Laboratory results reported in US4598068A, “Benzylphenyl osides, method of preparation and use therefor” (Societe de Recheres Industrielles, priority 1983, dated 1986).

Key:
[1] = Acute toxicity, intraperitoneal administration to mice; type: in vivo; details: mouse, in vivo, ip, read-out: LD50 (lethal dose causing the death of half of the animals)
Excerpt: (§1) The acute toxicity was studied by intraperitoneal administration to mice. It is expressed in the form of LD50 (lethal dose causing the death of half of the animals) or LD0 (maximum non-lethal dose).

[2] = tested on: cholesterol level in the plasma; assay: Hypocholesterolemic activity: plasma cholesterol level in rats; type: in vivo, male Wistar rats; details: Rattus norvegicus, po, T=0 to T=+24 hours, not corrected for the variation in the control group, read-out: % Variation in the cholesterol level, variation in the subject treated; for change in vivo at 65 mg/kg: 65 mg/kg p.o. at T=0 and T=+7 hours; for change in vivo at 100 mg/kg: 100 mg/kg p.o. at T=0 and T=+7 hours
Method: Hypocholesterolemic activity
The hypocholesterolemic activity was studied on male Wistar rats (weighing about 200 to 220 g). Groups of 10 rats per product and per dose are fasted the day before the experiment. The products to be tested are administered in gum water (30 g/liter of gum arabic) at times T=0 and T=+7 hours. The cholesterol level in the plasma is measured at times T=0 and T=+24 hours and the percentage variation between T=0 and T=+24 hours is then calculated for the treated groups and the control groups.

[3] = Antithrombotic effects (statement only); details: in words
[4] = tested on: mice; assay: Acute toxicity, intraperitoneal administration to mice; type: in vivo; details: i.p.
Excerpt: as §1

O=[N+]([O-])c1ccc(Cc2ccc(O[C@@H]3OC[C@@H](O)[C@H](O)[C@H]3O)cc2)cc1 [Example 1, 4-(4-nitrobenzyl)phenyl β-D-xylopyranoside]
LD50 [1]: 650 mg/kg | change in vivo at 65 mg/kg [2]: -39% | antithrombotic effects [3]: beneficial antithrombotic effects

O=[N+]([O-])c1cccc(Cc2ccc(O[C@@H]3OC[C@@H](O)[C@H](O)[C@H]3O)cc2)c1 [Example 2, 4-(3-nitrobenzyl)phenyl β-D-xylopyranoside]
LD0 (maximum non-lethal dose) [4]: > 800 mg/kg | change in vivo at 100 mg/kg [2]: -27%

CC(=O)N[C@H]1[C@H](Oc2ccc(Cc3ccc([N+](=O)[O-])cc3)cc2)O[C@H](CO)[C@@H](O)[C@@H]1O [Example 3]
LD0 (maximum non-lethal dose) [4]: > 800 mg/kg | change in vivo at 100 mg/kg [2]: -42%

O=[N+]([O-])c1ccc(Cc2ccc(O[C@@H]3O[C@H](CO)[C@H](O)[C@H](O)[C@H]3O)cc2)cc1 [Example 4]
LD0 (maximum non-lethal dose) [4]: ≥ 900 mg/kg | change in vivo at 100 mg/kg [2]: -33%

C[C@@H]1O[C@@H](Oc2ccc(Cc3ccc([N+](=O)[O-])cc3)cc2)[C@H](O)[C@H](O)[C@H]1O [Example 5]
change in vivo at 100 mg/kg [2]: -7%

O=[N+]([O-])c1ccc(Cc2ccc(O[C@@H]3OC[C@H](O)[C@H](O)[C@H]3O)cc2)cc1 [Example 6]
LD0 (maximum non-lethal dose) [4]: ≥ 900 mg/kg | change in vivo at 100 mg/kg [2]: -29%

O[C@@H]1[C@@H](O)[C@H](Oc2ccc(Cc3ccccc3Cl)cc2)OC[C@H]1O [Example 7]
LD0 (maximum non-lethal dose) [4]: > 800 mg/kg | change in vivo at 100 mg/kg [2]: -20%

O[C@@H]1[C@@H](O)[C@H](Oc2ccc(Cc3cccc(Cl)c3)cc2)OC[C@H]1O [Example 8]
LD50 [1]: ≥ 800 mg/kg | change in vivo at 100 mg/kg [2]: -37%

O[C@@H]1[C@@H](O)[C@H](Oc2ccc(Cc3ccc(Cl)cc3)cc2)OC[C@H]1O [Example 9, 4-(4-chlorobenzyl)phenyl β-D-xylopyranoside]
LD0 (maximum non-lethal dose) [4]: > 800 mg/kg | change in vivo at 100 mg/kg [2]: -37%

O[C@@H]1[C@@H](O)[C@H](Oc2ccc(Cc3ccc(Br)cc3)cc2)OC[C@H]1O [Example 10]
LD0 (maximum non-lethal dose) [4]: ≥ 900 mg/kg | change in vivo at 100 mg/kg [2]: -39%

Cc1ccc(Cc2ccc(O[C@@H]3OC[C@@H](O)[C@H](O)[C@H]3O)cc2)cc1 [Example 11]
LD0 (maximum non-lethal dose) [4]: > 800 mg/kg | change in vivo at 100 mg/kg [2]: -19%

Cc1ccccc1Cc1ccc(O[C@@H]2OC[C@@H](O)[C@H](O)[C@H]2O)cc1 [Example 12]
LD0 (maximum non-lethal dose) [4]: > 800 mg/kg | change in vivo at 100 mg/kg [2]: -28%

Cc1cccc(Cc2ccc(O[C@@H]3OC[C@@H](O)[C@H](O)[C@H]3O)cc2)c1 [Example 13]
LD0 (maximum non-lethal dose) [4]: ≥ 800 mg/kg | change in vivo at 100 mg/kg [2]: -24%

COc1ccc(Cc2ccc(O[C@@H]3OC[C@@H](O)[C@H](O)[C@H]3O)cc2)cc1 [Example 15]
LD0 (maximum non-lethal dose) [4]: > 800 mg/kg | change in vivo at 100 mg/kg [2]: -47%

COc1cccc(Cc2ccc(O[C@@H]3OC[C@@H](O)[C@H](O)[C@H]3O)cc2)c1 [Example 17]
LD0 (maximum non-lethal dose) [4]: > 1000 mg/kg | change in vivo at 100 mg/kg [2]: -50%

O[C@@H]1[C@@H](O)[C@H](Oc2ccc(Cc3ccc(C(F)(F)F)cc3)cc2)OC[C@H]1O [Example 18]
LD50 [1]: > 900 mg/kg | change in vivo at 100 mg/kg [2]: -17%

Nc1ccc(Cc2ccc(O[C@@H]3OC[C@@H](O)[C@H](O)[C@H]3O)cc2)cc1 [Example 19]
LD0 (maximum non-lethal dose) [4]: > 800 mg/kg | change in vivo at 100 mg/kg [2]: -29%

CN(C)c1ccc(Cc2ccc(O[C@@H]3OC[C@@H](O)[C@H](O)[C@H]3O)cc2)cc1 [Example 20]
change in vivo at 100 mg/kg [2]: -22%

Nc1cccc(Cc2ccc(O[C@@H]3OC[C@@H](O)[C@H](O)[C@H]3O)cc2)c1 [Example 23]
LD0 (maximum non-lethal dose) [4]: ≥ 900 mg/kg | change in vivo at 100 mg/kg [2]: -28%

O[C@@H]1[C@@H](O)[C@H](Oc2ccc(Cc3ccc(Cl)cc3Cl)cc2)OC[C@H]1O [Example 26]
LD50 [1]: 640 mg/kg | change in vivo at 100 mg/kg [2]: -8%

Cc1cc(C)c(Cc2ccc(O[C@@H]3OC[C@@H](O)[C@H](O)[C@H]3O)cc2)c(C)c1 [Example 27]
LD0 (maximum non-lethal dose) [4]: ≥ 800 mg/kg | change in vivo at 100 mg/kg [2]: -13%

Oc1ccc(Cc2ccc(O[C@@H]3OC[C@@H](O)[C@H](O)[C@H]3O)cc2)cc1 [Example 29]
LD0 (maximum non-lethal dose) [4]: ≥ 800 mg/kg | change in vivo at 100 mg/kg [2]: -37%

Cc1ccc(Cc2cc(C)c(OC3OC[C@@H](O)[C@H](O)[C@H]3O)c(C)c2)cc1 (stereo partly drawn) [Example 30]
LD50 [1]: 630 mg/kg | change in vivo at 100 mg/kg [2]: -12%

O[C@@H]1[C@@H](O)[C@H](Oc2ccc(Cc3ccccc3)cc2)OC[C@H]1O [Example 33, 4-(benzyl)phenyl β-D-xylopyranoside]
LD0 (maximum non-lethal dose) [4]: > 800 mg/kg | change in vivo at 100 mg/kg [2]: -38%

O=[N+]([O-])c1cc(Cc2ccccc2)ccc1O[C@@H]1OC[C@@H](O)[C@H](O)[C@H]1O [Example 34]
LD50 [1]: 250 mg/kg | change in vivo at 25 mg/kg ([2]; 25 mg/kg p.o. at T=0 and T=+7 hours): -15%

CC(=O)O[C@@H]1[C@@H](OC(C)=O)[C@H](Oc2ccc(Cc3c(C)cc(C)cc3C)cc2)OC[C@H]1OC(C)=O [Example 62]
LD0 (maximum non-lethal dose) [4]: > 900 mg/kg | change in vivo at 100 mg/kg [2]: -18%

O=[N+]([O-])c1ccc(Cc2ccc(O[C@@H]3O[C@H](CO)[C@@H](O)[C@H](O)[C@H]3O)cc2)cc1 [Example 71]
LD0 (maximum non-lethal dose) [4]: ≥ 900 mg/kg | change in vivo at 65 mg/kg [2]: -21%

O[C@@H]1[C@@H](O)[C@H](Oc2cccc(Cc3ccc(Cl)cc3)c2)OC[C@H]1O [Example 75]
change in vivo at 100 mg/kg [2]: -43%

O[C@@H]1[C@@H](O)[C@H](Oc2cccc(Cc3ccccc3)c2)OC[C@H]1O [Example 77]
change in vivo at 100 mg/kg [2]: -25%

Cc1cc(Cc2ccccc2)ccc1O[C@@H]1OC[C@@H](O)[C@H](O)[C@H]1O [Example 79]
LD50 [1]: 320 mg/kg | change in vivo at 30 mg/kg ([2]; 30 mg/kg p.o. at T=0 and T=+7 hours): -37%

Cc1cc(Cc2ccc([N+](=O)[O-])cc2)cc(C)c1OC1OC[C@@H](O)[C@H](O)[C@H]1O (stereo partly drawn) [Example 82]
LD0 (maximum non-lethal dose) [4]: > 800 mg/kg

CSc1ccc(Cc2ccc(O[C@@H]3OC[C@@H](O)[C@H](O)[C@H]3O)cc2)cc1 [Example 85, 4-(4-methylthiobenzyl)phenyl β-D-xylopyranoside]
LD0 (maximum non-lethal dose) [4]: > 800 mg/kg | change in vivo at 100 mg/kg [2]: -23%

CS(=O)(=O)c1ccc(Cc2ccc(O[C@@H]3OC[C@@H](O)[C@H](O)[C@H]3O)cc2)cc1 [Example 89, 4-(4-mesylbenzyl)phenyl β-D-xylopyranoside]
LD50 [1]: 450 mg/kg | change in vivo at 45 mg/kg ([2]; 45 mg/kg p.o. at T=0 and T=+7 hours): -30%

CS(=O)(=O)c1ccc(Cc2ccc(O[C@@H]3O[C@H](CO)[C@@H](O)[C@H](O)[C@H]3O)cc2)cc1 [Example 91, 4-(4-mesylbenzyl)phenyl β-D-glucopyranoside]
LD0 (maximum non-lethal dose) [4]: > 800 mg/kg | change in vivo at 100 mg/kg [2]: -40%

CC(=O)N[C@H]1[C@H](Oc2ccc(Cc3ccc(S(C)(=O)=O)cc3)cc2)O[C@H](CO)[C@@H](O)[C@@H]1O [Example 93, 4-(4-mesylbenzyl)phenyl β-D-N-acetylglucosaminopyranoside]
LD0 (maximum non-lethal dose) [4]: > 800 mg/kg | change in vivo at 100 mg/kg [2]: -36%
